US12599136B2, “Substituted isophthalic acid diamides and their use as herbicides” (Bayer Aktiengesellschaft, priority 2020, dated 2026)

Assays:
Type in all cases: in vivo
Abutilon theophrasti [1] = test: Pre-emergence herbicidal action against ABUTH; details: visual score after 3 weeks vs untreated controls
Summary of the method: (§1)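 Seeds sown in sandy loam, soil-covered; compound sprayed on soil surface pre-emergence. Application: WP/EC, 600–800 l/ha, 0.2% wetting agent. Readout: visual % damage at 3 weeks.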

Alopecurus myosuroides [2] = test: Pre-emergence herbicidal action against ALOMY; details: visual score after 3 weeks vs untreated controls
Summary of the method: as §1

Amaranthus retroflexus [3] = test: Pre-emergence herbicidal action against AMARE; details: visual score after 3 weeks vs untreated controls
Summary of the method: as §1

Matricaria inodora [4] = test: Pre-emergence herbicidal action against MATIN; details: visual score after 3 weeks vs untreated controls
Summary of the method: as §1

Digitaria sanguinalis [5] = test: Pre-emergence herbicidal action against DIGSA; details: 80 g/ha
Summary of the method: as §1

Setaria viridis [6] = test: Pre-emergence herbicidal action against SETVI; details: 80 g/ha
Summary of the method: as §1

Veronica persica [7] = test: Pre-emergence herbicidal action against VERPE
Summary of the method: as §1

Viola tricolor [8] = test: Pre-emergence herbicidal action against VIOTR
Summary of the method: as §1

Abutilon theophrasti [9] = test: Post-emergence herbicidal action against ABUTH
Summary of the method: (§2)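 Percent herbicidal action is rated by eye about 3 weeks after treatment against untreated controls, where 100% means dead plants and 0% means like controls. Plants in sandy loam are sprayed on green parts at the one-leaf stage with aqueous WP or EC preparations at 600 to 800 l/ha plus 0.2% wetting agent.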

Pharbitis purpurea = test: Post-emergence herbicidal action against PHBPU; details: visual assessment about 3 weeks after treatment
Summary of the method: as §2

Digitaria sanguinalis [10] = test: Post-emergence herbicidal action against DIGSA; details: 20 g/ha
Description: Seeds of monocotyledonous and dicotyledonous weed and crop plants are laid out in sandy loam soil in wood-fiber pots, covered with soil and cultivated in a greenhouse under good growth conditions. 2 to 3 weeks after sowing, the test plants are treated at the one-leaf stage. The compounds of the invention, formulated in the form of wettable powders (WP) or as emulsion concentrates (EC), are then sprayed onto the green parts of the plants in the form of an aqueous suspension or emulsion at a water application rate equivalent to 600 to 800 l/ha, with addition of 0.2% wetting agent. After the test plants have been left to stand in the greenhouse under optimal growth conditions for about 3 weeks, the action of the preparations is assessed visually in comparison to untreated controls (herbicidal action in percent (%): 100% activity=the plants have died, 0% activity=like control plants). […] The tables below illustrate, in an illustrative manner, the post-emergence herbicidal action of the compounds of the invention, the herbicidal activity being stated in percent.

Setaria viridis [11] = test: Post-emergence herbicidal action against SETVI; details: visual assessment about 3 weeks after treatment
Summary of the method: as §2

Viola tricolor [12] = test: Post-emergence herbicidal action against VIOTR
Summary of the method: as §2

Echinochloa crus-galli [13] = test: Pre-emergence herbicidal action against ECHCG; details: 80 g/ha; visual score after 3 weeks vs untreated controls
Summary of the method: as §1

Amaranthus retroflexus [14] = test: Post-emergence herbicidal action against AMARE; details: visual assessment about 3 weeks after treatment
Summary of the method: as §2

Matricaria inodora [15] = test: Post-emergence herbicidal action against MATIN; details: visual assessment about 3 weeks after treatment
Summary of the method: as §2

Avena fatua [16] = test: Pre-emergence herbicidal action against AVEFA; details: 80 g/ha; visual score after 3 weeks vs untreated controls
Source text: (§3) Seeds of monocotyledonous and dicotyledonous weed plants and crop plants are laid out in sandy loam soil in wood-fiber pots and covered with soil. The compounds of the invention, formulated in the form of wettable powders (WP) or as emulsion concentrates (EC), are then applied to the surface of the covering soil in the form of an aqueous suspension or emulsion at a water application rate equivalent to 600 to 800 l/ha, with addition of 0.2% wetting agent. After the treatment, the pots are placed in a greenhouse and kept under good growth conditions for the trial plants. The damage to the test plants is scored visually after a test period of 3 weeks by comparison with untreated controls (herbicidal activity in percent (%): 100% activity=the plants have died, 0% activity=like control plants). […] The tables below illustrate, in an illustrative manner, the post-emergence herbicidal action of the compounds of the invention, the herbicidal activity being stated in percent.

Lolium rigidum = test: Pre-emergence herbicidal action against LOLRI; details: 80 g/ha
Source text: as §3

Polygonum convolvulus = test: Pre-emergence herbicidal action against POLCO; details: 80 g/ha
Source text: as §3

Alopecurus myosuroides [17] = test: Post-emergence herbicidal action against ALOMY
Summary of the method: as §2

Echinochloa crus-galli [18] = test: Post-emergence herbicidal action against ECHCG; details: visual assessment about 3 weeks after treatment
Summary of the method: as §2

Veronica persica [19] = test: Post-emergence herbicidal action against VERPE; details: visual assessment about 3 weeks after treatment
Summary of the method: as §2

Avena fatua [20] = test: Post-emergence herbicidal action against AVEFA; details: 20 g/ha, visual assessment about 3 weeks after treatment
Summary of the method: as §2

SMILES | Pre-emergence action against ABUTH (Abutilon theophrasti [1]; 80 g/ha) [%] | Pre-emergence action against ALOMY (Alopecurus myosuroides [2]; 80 g/ha) [%] | Pre-emergence action against AMARE (Amaranthus retroflexus [3]; 20 g/ha) [%] | Pre-emergence action against AMARE (Amaranthus retroflexus [3]; 80 g/ha) [%] | Pre-emergence action against MATIN (Matricaria inodora [4]; 80 g/ha) [%] | Pre-emergence action against SETVI (Setaria viridis [6]) [%] | Pre-emergence action against VERPE (Veronica persica [7]; 80 g/ha) [%] | Pre-emergence action against VIOTR (Viola tricolor [8]; 80 g/ha) [%] | Post-emergence action against ABUTH (Abutilon theophrasti [9]; 5 g/ha) [%] | Post-emergence action against ABUTH (Abutilon theophrasti [9]; 20 g/ha) [%] | Post-emergence action against PHBPU in % (Pharbitis purpurea; 20 g/ha) [%] | Post-emergence action against SETVI in % (Setaria viridis [11]; 20 g/ha) [%] | Post-emergence action against VIOTR in % (Viola tricolor [12]; 20 g/ha) [%] | Pre-emergence action against ECHCG (Echinochloa crus-galli [13]) [%] | Post-emergence action against AMARE in % (Amaranthus retroflexus [14]; 5 g/ha) [%] | Post-emergence action against AMARE in % (Amaranthus retroflexus [14]; 20 g/ha) [%] | Post-emergence action against MATIN in % (Matricaria inodora [15]; 20 g/ha) [%] | Pre-emergence action against ABUTH (Abutilon theophrasti [1]; 20 g/ha) [%] | Pre-emergence action against MATIN (Matricaria inodora [4]; 20 g/ha) [%] | Pre-emergence action against LOLRI (Lolium rigidum) [%] | also measured
CCN(C)C(=O)c1c(C(F)(F)F)ccc(C(=O)Nc2nnnn2C)c1C [Example 1-20, N^3-ethyl-N^3-2-dimethyl-N^1-(1-methyl-1H-tetrazol-5-yl)-4-(trifluoromethyl)isophthalamide] | 100 | 90 | 80 | 90 | 100 | 100 | 80 | 100 | 80 | 90 | 90 | 80 | 90 |  |  |  |  |  |  |  | Pre-emergence action against DIGSA (Digitaria sanguinalis [5]): 90%; Post-emergence action against DIGSA in % (Digitaria sanguinalis [10]): 80%
Cc1c(C(=O)Nc2nnnn2C)ccc(C(F)(F)F)c1C(=O)N(C1CC1)C1CC1 [Example 1-40] | 80 |  | 100 | 100 | 90 |  |  | 100 |  |  |  |  |  | 80 | 80 | 80 | 80 |  |  |  | Pre-emergence action against DIGSA (Digitaria sanguinalis [5]): 100%; Post-emergence action against DIGSA in % (Digitaria sanguinalis [10]): 90%
CN(CC(F)F)C(=O)c1c(C(F)F)ccc(C(=O)Nc2nnnn2C)c1Cl [Example 1-159] | 100 | 90 | 100 | 100 | 100 | 100 | 100 | 100 | 90 | 90 | 90 | 100 | 90 | 100 | 100 | 100 | 90 | 100 | 90 | 80 | Pre-emergence action against ALOMY (Alopecurus myosuroides [2]; 20 g/ha): 90%; Pre-emergence action against AVEFA (Avena fatua [16]): 80%; Pre-emergence action against POLCO (Polygonum convolvulus): 80%; Pre-emergence action against VERPE (Veronica persica [7]; 20 g/ha): 90%; Post-emergence action against ALOMY (Alopecurus myosuroides [17]; 5 g/ha): 90%; Post-emergence action against ALOMY (Alopecurus myosuroides [17]; 20 g/ha): 90%; Post-emergence action against ECHCG in % (Echinochloa crus-galli [18]; 5 g/ha): 80%; Post-emergence action against ECHCG in % (Echinochloa crus-galli [18]; 20 g/ha): 90%; Post-emergence action against MATIN in % (Matricaria inodora [15]; 5 g/ha): 80%; Post-emergence action against SETVI in % (Setaria viridis [11]; 5 g/ha): 100%; Post-emergence action against VERPE in % (Veronica persica [19]; 5 g/ha): 80%; Post-emergence action against VERPE in % (Veronica persica [19]; 20 g/ha): 90%; Post-emergence action against VIOTR in % (Viola tricolor [12]; 5 g/ha): 80%
CCn1nnnc1NC(=O)c1ccc(C(F)(F)F)c(C(=O)N(C)C2CC2)c1Cl [Example 2-125] | 100 | 100 | 100 | 100 | 100 | 100 |  | 100 |  |  |  |  |  |  | 90 | 90 | 90 | 90 |  |  | Pre-emergence action against DIGSA (Digitaria sanguinalis [5]): 100%; Post-emergence action against ALOMY (Alopecurus myosuroides [17]; 20 g/ha): 80%; Post-emergence action against AVEFA in % (Avena fatua [20]): 80%; Post-emergence action against DIGSA in % (Digitaria sanguinalis [10]): 90%
CCn1nnnc1NC(=O)c1ccc(C(F)F)c(C(=O)N(C)C2CC2)c1Cl [Example 2-156] | 100 | 90 | 100 | 100 | 100 | 100 | 90 | 100 |  | 90 | 80 | 80 | 90 | 100 | 100 | 100 | 90 | 100 | 100 | 80 | Pre-emergence action against ALOMY (Alopecurus myosuroides [2]; 20 g/ha): 90%; Pre-emergence action against AVEFA (Avena fatua [16]): 90%; Pre-emergence action against POLCO (Polygonum convolvulus): 90%; Post-emergence action against ALOMY (Alopecurus myosuroides [17]; 20 g/ha): 90%; Post-emergence action against AVEFA in % (Avena fatua [20]): 90%; Post-emergence action against ECHCG in % (Echinochloa crus-galli [18]; 20 g/ha): 90%; Post-emergence action against MATIN in % (Matricaria inodora [15]; 5 g/ha): 90%; Post-emergence action against PHBPU in % (Pharbitis purpurea; 5 g/ha): 80%; Post-emergence action against VERPE in % (Veronica persica [19]; 20 g/ha): 80%; Post-emergence action against VIOTR in % (Viola tricolor [12]; 5 g/ha): 90%
CCn1nnnc1NC(=O)c1ccc(C(F)F)c(C(=O)N(C)CC(F)F)c1Cl [Example 2-159] | 100 | 100 | 100 | 100 | 100 | 100 | 80 | 100 | 80 | 90 |  | 90 | 90 | 90 | 100 | 100 | 90 | 100 | 90 | 90 | Pre-emergence action against AVEFA (Avena fatua [16]): 90%; Pre-emergence action against POLCO (Polygonum convolvulus): 90%; Post-emergence action against AVEFA in % (Avena fatua [20]): 90%; Post-emergence action against ECHCG in % (Echinochloa crus-galli [18]; 20 g/ha): 90%; Post-emergence action against MATIN in % (Matricaria inodora [15]; 5 g/ha): 80%; Post-emergence action against VERPE in % (Veronica persica [19]; 20 g/ha): 80%; Post-emergence action against VIOTR in % (Viola tricolor [12]; 5 g/ha): 80%
CCN(C(=O)c1c(C(F)F)ccc(C(=O)Nc2nnnn2CC)c1Cl)C1CC1 [Example 2-167] | 100 | 100 | 100 | 100 | 100 | 100 |  | 100 | 90 | 90 | 90 | 90 | 100 | 90 | 100 | 100 | 80 | 100 | 100 | 80 | Pre-emergence action against VIOTR (Viola tricolor [8]; 20 g/ha): 80%; Post-emergence action against ALOMY (Alopecurus myosuroides [17]; 5 g/ha): 80%; Post-emergence action against ALOMY (Alopecurus myosuroides [17]; 20 g/ha): 100%; Post-emergence action against AVEFA in % (Avena fatua [20]): 80%; Post-emergence action against ECHCG in % (Echinochloa crus-galli [18]; 20 g/ha): 90%; Post-emergence action against SETVI in % (Setaria viridis [11]; 5 g/ha): 90%; Post-emergence action against VERPE in % (Veronica persica [19]; 20 g/ha): 80%
